Experimental data published in article PMC8036603, “Small Molecule Inhibitors of White Spot Syndrome Virus: Promise in Shrimp Seedling Culture” (International Journal of Molecular Sciences, 2021).
In brackets after ≈: the same amount, converted by molar mass. Where two headings read alike, the source gives them in different places.

Experiments:
[1] = test system: white spot syndrome virus (WSSV); test: Anti-WSSV activity in shrimp larvae, co-incubation, copy number of viral genome by RT-qPCR; format: in vivo, Litopenaeus vannamei
[2] = Acute toxicity assay in shrimp larvae; format: in vivo, Litopenaeus vannamei; conditions: Litopenaeus vannamei (shrimp) larvae, in vivo, other: immersion of larvae in test solutions, 28 °C, 95% CI in brackets; for LC50 at 24 h: 24 h exposure, read-out: LC50 (mg/L; 95% CI) 24 h; for LC50 at 48 h: 48 h exposure, read-out: LC50 (mg/L; 95% CI) 48 h; for LC50 at 72 h: 72 h exposure, read-out: LC50 (mg/L; 95% CI) 72 h
Experimental: (§1) Shrimp (L. vannamei) larvae (total length: 0.5 ± 0.04 cm, body weight: 4.2 ± 0.4 mg, mean ± SD) were provided by Zhejiang Mariculture Research Institute Qingjiang Station (Wenzhou, China). The larvae were maintained in a culture pond at 28 °C, fed four times a day with commercial feed pellets, and collected randomly for PCR testing to verify the WSSV-free status prior to the trial.
(§2) Acute toxicity of the coumarin derivatives was investigated by exposing larvae to a range of compound concentrations, from 0.1 mg/L to 100 mg/L of coumarin derivatives, where the dose setting was based on the data from preliminary tests in our laboratory. A DMSO-control (2%, v/v, the highest percentage of DMSO in treatments) served as the control. During the experiment, every 20 larvae were moved into six-well plates filled with 6 mL/per well freshly prepared test solutions for a 72-h incubation at 28 °C with a natural photoperiod. […] To avoid deterioration of water quality, dead shrimps were immediately removed at the point of observation. Three replicate experiments were performed.
(§3) Compound response curves were represented by a logistic sigmoidal function with a maximal effect level (Amax) and Hill coefficient representing the sigmoidal transition (Origin 8.1; http://www.originlab.com, accessed on 25 March 2021). Statistical analyses were performed using SPSS (version 18.0) statistical software (SPSS Inc., Chicago, IL, USA). The LC50 and EC50 values with 95% CIs were calculated using probit analysis. Virus titers were log10-transformed prior to statistical analyses. Unpaired Student’s t-tests were used to compare coumarin-treated samples and negative-control DMSO samples for determining significance and data are presented as mean values ± SD.

[3] = Solubility / precipitation in aquacultural water; format: physicochemical; conditions: for lowest precipitation concentration / lowest precipitation concentration (bracketed value in LC50 48 h column) / lowest precipitation concentration (bracketed value in LC50 72 h column): test range 0.4~100 mg/L, aquacultural water, LC50 NONE
Experimental: Prior to evaluation of the anti-WSSV activity of coumarins, the safety doses for larvae needed to be determined. […] In contrast, the electron-withdrawing group was more toxic than the electron-donating group, with the LC50 of A5‒A8 being <5 mg/L at 72 h. […] Based on preliminary analysis of the structure-activity relationship (SAR) of similar spatial structures with different substituents of electron-donating and electron-withdrawing groups to coumarins A1, B1, and C1, we considered that […] of compounds; this provides a basis for further research.
All conventional reagents and solvents are purchased directly from commercial companies and no further purification is required. Organic solvents were purchased from Sinopharm chemical reagent Co., Ltd. and purified by distillation and moisture was excluded from the glass apparatus using CaCl2 drying tubes. Throughout this study, silica gel H (200–300 mesh; Qingdao Marine Chemical Factory, Qingdao, China) was used for the column chromatography. For thin layer chromatographic (TLC) plates, Silica gel (GF254) (Qingdao Marine Chemical Factory, Qingdao, China) were used for thin layer chromatographic (TLC) analysis, and all of the spots and bands were detected by UV irradiation (254, 365 nm). The intermediates and products were characterized by electrospray ionization mass spectrometry (TripleTOF5600þ; AB SCIEX Pte. Ltd., Boston, MA, USA), ^1H NMR and ^13C NMR (Bruker AM500 spectrometer; Bruker Corporation, Berne, Switzerland). The derivatives were dissolved in 100% dimethyl sulfoxide (DMSO; Beyotime Biotechnology, Haimen, China), stored at 4 °C prior to antiviral evaluation, and used within 6 months. For solubility, the stock solutions, at a concentration of 50 mg/mL, were sonicated for approximately 10 min to ensure that the derivatives were fully dissolved and mixed.

[4] = test system: Shrimp (L. vannamei) larvae; test: Acute toxicity assay in shrimp larvae; format: in vivo, Litopenaeus vannamei; conditions: after 72 h of exposure
Experimental: as §1, §2, §3

[5] = test system: white spot syndrome virus (WSSV); conditions: cited from earlier work
[6] = Whispovirus xiabaidian, 72 h, WSSV-infected larvae, copy number of viral genome, 72 h; 95% CI in brackets; read-out: EC50 (mg/L; 95% CI), median effective concentration
[7] = WSSV-infected larvae, copy number of viral genome, 72 h; 95% CI in brackets
[8] = Whispovirus xiabaidian, 72 h, read-out: EC50 (mg/L; 95% CI), median effective concentration, WSSV-infected larvae, copy number of viral genome, 72 h; 95% CI in brackets
[9] = six-point dose-response, viral genome copy number in larvae

| SMILES | LC50 at 24 h [2] | LC50 at 48 h [2] | LC50 at 72 h [2] | further results |
| --- | --- | --- | --- | --- |
| O=C1Nc2c(c(=O)oc3ccccc23)C(c2ccccc2)N1 (centres unmarked) [A1, 4-phenyl-3,4-dihydro-2H-chromeno[4,3-d]pyrimidine-2,5(1H)-dione] | 95.5 mg/L (≈ 327 µM) | 71.4 mg/L (≈ 244 µM) | 32.5 mg/L (≈ 111 µM) | EC50 [1, 6]: 21.5 mg/L |
| Cc1ccc(C2NC(=O)Nc3c2c(=O)oc2ccccc32)cc1 (centres unmarked) [A2, 4-(p-tolyl)-3,4-dihydro-2H-chromeno[4,3-d]pyrimidine-2,5(1H)-dione] | 15 mg/L (≈ 49 µM) | 14.3 mg/L (≈ 46.6 µM) | 10 mg/L (≈ 32.7 µM) | EC50 (mg/L; 95% CI), median effective concentration [1, 7]: 05.037 (4.076~7.593) mg/L; EC50 [1, 6]: < 10 mg/L |
| COc1ccc(C2NC(=O)Nc3c2c(=O)oc2ccccc32)cc1 (centres unmarked) [A3, 4-(4-methoxyphenyl)-3,4-dihydro-2H-chromeno[4,3-d]pyrimidine-2,5(1H)-dione] | 26.9 mg/L (≈ 83.4 µM) | 24.5 mg/L (≈ 76 µM) | 21.1 mg/L (≈ 65.5 µM) | EC50 [1, 6]: 14.9 mg/L |
| O=C1Nc2c(c(=O)oc3ccccc23)C(c2ccc(O)cc2)N1 (centres unmarked) [A4, 4-(4-hydroxyphenyl)-3,4-dihydro-2H-chromeno[4,3-d]pyrimidine-2,5(1H)-dione] | – | – | – | EC50 [1, 8]: 21.7 mg/L; inhibitory efficiency on WSSV replication [1, 9]: exceeded 90%; lowest precipitation concentration [3]: NONE (50) mg/L; lowest precipitation concentration (bracketed value in LC50 48 h column) [3]: NONE (50) mg/L; lowest precipitation concentration (bracketed value in LC50 72 h column) [3]: NONE (50) mg/L |
| O=C1Nc2c(c(=O)oc3ccccc23)C(c2ccc(F)cc2)N1 (centres unmarked) [A5, 4-(4-fluorophenyl)-3,4-dihydro-2H-chromeno[4,3-d]pyrimidine-2,5(1H)-dione] | 16.6 mg/L (≈ 53.6 µM) | 11.7 mg/L (≈ 37.9 µM) | 10.1 mg/L (≈ 32.4 µM) | EC50 (mg/L; 95% CI), median effective concentration [1, 7]: 08.416 (7.137~11.317) mg/L; EC50 [1, 6]: < 10 mg/L |
| O=C1Nc2c(c(=O)oc3ccccc23)C(c2ccc(Cl)cc2)N1 (centres unmarked) [A6, 4-(4-chlorophenyl)-3,4-dihydro-2H-chromeno[4,3-d]pyrimidine-2,5(1H)-dione] | 2.58 mg/L (≈ 7.91 µM) | 2.48 mg/L (≈ 7.59 µM) | 2.35 mg/L (≈ 7.18 µM) | – |
| O=C1Nc2c(c(=O)oc3ccccc23)C(c2ccc(Br)cc2)N1 (centres unmarked) [A7, 4-(4-bromophenyl)-3,4-dihydro-2H-chromeno[4,3-d]pyrimidine-2,5(1H)-dione] | 14.1 mg/L (≈ 38.1 µM) | 5.68 mg/L (≈ 15.3 µM) | 3.37 mg/L (≈ 9.07 µM) | – |
| O=C1Nc2c(c(=O)oc3ccccc23)C(c2ccc([N+](=O)[O-])cc2)N1 (centres unmarked) [A8, 4-(4-nitrophenyl)-3,4-dihydro-2H-chromeno[4,3-d]pyrimidine-2,5(1H)-dione] | 8.76 mg/L (≈ 26 µM) | 3.43 mg/L (≈ 10.2 µM) | 1.61 mg/L (≈ 4.79 µM) | – |
| N#Cc1ccc(C2NC(=O)Nc3c2c(=O)oc2ccccc32)cc1 (centres unmarked) [A9, 4-(2,5-dioxo-1,3,4,5-tetrahydro-2H-chromeno[4,3-d]pyrimidin-4-yl)benzonitrile] | 19.8 mg/L (≈ 62.5 µM) | 18 mg/L (≈ 56.6 µM) | 7.33 mg/L (≈ 23.1 µM) | – |
| O=c1oc2ccccc2c2c1C(c1ccccc1)NC(=S)N2 (centres unmarked) [B1, 4-phenyl-2-thioxo-1,2,3,4-tetrahydro-5H-chromeno[4,3-d]pyrimidin-5-one] | 15 mg/L (≈ 48.7 µM) | 12.8 mg/L (≈ 41.4 µM) | 10.5 mg/L (≈ 34.2 µM) | – |
| Cc1ccc(C2NC(=S)Nc3c2c(=O)oc2ccccc32)cc1 (centres unmarked) [B2, 2-thioxo-4-(p-tolyl)-1,2,3,4-tetrahydro-5H-chromeno[4,3-d]pyrimidin-5-one] | 23.9 mg/L (≈ 74 µM) | 18.6 mg/L (≈ 57.6 µM) | 14.7 mg/L (≈ 45.5 µM) | – |
| COc1ccc(C2NC(=S)Nc3c2c(=O)oc2ccccc32)cc1 (centres unmarked) [B3, 4-(4-methoxyphenyl)-2-thioxo-1,2,3,4-tetrahydro-5H-chromeno[4,3-d]pyrimidin-5-one] | 66.2 mg/L (≈ 196 µM) | 64.1 mg/L (≈ 189 µM) | 41.7 mg/L (≈ 123 µM) | EC50 [1, 6]: 25.6 mg/L |
| O=c1oc2ccccc2c2c1C(c1ccc(O)cc1)NC(=S)N2 (centres unmarked) [B4, 4-(4-hydroxyphenyl)-2-thioxo-1,2,3,4-tetrahydro-5H-chromeno[4,3-d]pyrimidin-5-one] | – | – | – | EC50 [1, 8]: 22.6 mg/L; inhibitory efficiency on WSSV replication [1, 9]: exceeded 90%; lowest precipitation concentration [3]: NONE (50) mg/L; lowest precipitation concentration (bracketed value in LC50 48 h column) [3]: NONE (50) mg/L; lowest precipitation concentration (bracketed value in LC50 72 h column) [3]: NONE (50) mg/L |
| O=c1oc2ccccc2c2c1C(c1ccc(F)cc1)NC(=S)N2 (centres unmarked) [B5, 4-(4-fluorophenyl)-2-thioxo-1,2,3,4-tetrahydro-5H-chromeno[4,3-d]pyrimidin-5-one] | 16.6 mg/L (≈ 50.7 µM) | 8.87 mg/L (≈ 27.2 µM) | 8.4 mg/L (≈ 25.7 µM) | – |
| O=c1oc2ccccc2c2c1C(c1ccc(Cl)cc1)NC(=S)N2 (centres unmarked) [B6, 4-(4-chlorophenyl)-2-thioxo-1,2,3,4-tetrahydro-5H-chromeno[4,3-d]pyrimidin-5-one] | 8.85 mg/L (≈ 25.8 µM) | 6.63 mg/L (≈ 19.3 µM) | 4.5 mg/L (≈ 13.1 µM) | – |
| O=c1oc2ccccc2c2c1C(c1ccc(Br)cc1)NC(=S)N2 (centres unmarked) [B7, 4-(4-bromophenyl)-2-thioxo-1,2,3,4-tetrahydro-5H-chromeno[4,3-d]pyrimidin-5-one] | 10 mg/L (≈ 25.9 µM) | 4.81 mg/L (≈ 12.4 µM) | 4.46 mg/L (≈ 11.5 µM) | – |
| O=c1oc2ccccc2c2c1C(c1ccc([N+](=O)[O-])cc1)NC(=S)N2 (centres unmarked) [B8, 4-(4-nitrophenyl)-2-thioxo-1,2,3,4-tetrahydro-5H-chromeno[4,3-d]pyrimidin-5-one] | 13.6 mg/L (≈ 38.3 µM) | 7.48 mg/L (≈ 21.2 µM) | 3.06 mg/L (≈ 8.65 µM) | – |
| N#Cc1ccc(C2NC(=S)Nc3c2c(=O)oc2ccccc32)cc1 (centres unmarked) [B9, 4-(5-oxo-2-thioxo-1,3,4,5-tetrahydro-2H-chromeno[4,3-d]pyrimidin-4-yl)benzonitrile] | 37.1 mg/L (≈ 111 µM) | 31.5 mg/L (≈ 94.5 µM) | 9.63 mg/L (≈ 28.9 µM) | – |
| N#CC1=C(N)Oc2c(c(=O)oc3ccccc23)C1c1ccccc1 (centres unmarked) [C1] | 18.4 mg/L (≈ 58.2 µM) | 16.6 mg/L (≈ 52.6 µM) | 9.18 mg/L (≈ 29 µM) | EC50 [1, 8]: 2.9 mg/L |
| COc1ccc(C2C(C#N)=C(N)Oc3c2c(=O)oc2ccccc32)cc1 (centres unmarked) [C3] | 22.3 mg/L (≈ 64.5 µM) | 17.3 mg/L (≈ 50 µM) | 17.3 mg/L (≈ 50 µM) | EC50 [1, 8]: 14.8 mg/L |
| N#CC1=C(N)Oc2c(c(=O)oc3ccccc23)C1c1ccc(O)cc1 (centres unmarked) [C4] | – | – | – | EC50 [1, 6]: 61.2 mg/L; inhibitory efficiency on WSSV replication [1, 9]: exceeded 90% |
| N#CC1=C(N)Oc2c(c(=O)oc3ccccc23)C1c1ccc(F)cc1 (centres unmarked) [C5] | – | – | – | EC50 [1, 8]: 8.82 mg/L; inhibitory efficiency on WSSV replication [1, 9]: exceeded 90%; lowest precipitation concentration [3]: NONE (16) mg/L; lowest precipitation concentration (bracketed value in LC50 48 h column) [3]: NONE (16) mg/L; lowest precipitation concentration (bracketed value in LC50 72 h column) [3]: NONE (16) mg/L; solubility in aquacultural water ([3]; tested concentration 16 mg/L, 28 °C): insoluble; signs of toxicity at the saturation concentration [4]: No signs of toxicity were observed |
| N#CC1=C(N)Oc2c(c(=O)oc3ccccc23)C1c1ccc(Cl)cc1 (centres unmarked) [C6] | – | 44.2 mg/L (≈ 126 µM) | 17.7 mg/L (≈ 50.4 µM) | EC50 [1, 8]: 8.54 mg/L; inhibitory efficiency on WSSV replication [1, 9]: exceeded 90% |
| N#CC1=C(N)Oc2c(c(=O)oc3ccccc23)C1c1ccc(C#N)cc1 (centres unmarked) [C9] | – | – | – | EC50 [1, 8]: 60.5 mg/L |
| C=CCN1C(=O)/C(=C/c2ccc(-c3ccccc3)o2)SC1=S [LJ001] | – | – | – | half-life in aquaculture water [5]: less than 2 days |
| C=CCN1C(=O)S/C(=C\c2ccc(-c3ccccc3)o2)C1=O [LJ025] | – | – | – | half-life in aquaculture water [5]: less than 2 days |
